These results are taken from the supplement of paper PMC10307832.

Common to all, as to experiment: relative viability (nuclei count vs DMSO), 5 days (fraction); higher = more cells survive
Compound in assay [1]: CC(C)C[C@@H](C(=O)N[C@H](C(=O)OC1CCCC1)c1ccccc1)[C@H](O)C(=O)NO [Tosedostat] + Cc1nc(NC(=O)N2CCC[C@H]2C(N)=O)sc1-c1ccnc(C(C)(C)C(F)(F)F)c1 [Alpelisib] (partner 2 µM)
Put shortly:
(§1)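 Values are medians from duplicate plates. Each reflects relative viability, defined as the nuclei count of treated wells over that of vehicle wells. Lung cancer cell lines in 1536-well plates were pin-tool dosed one day after seeding with one drug alone or with a fixed anchor-drug dose plus five library-drug doses (not always all listed) in √10 steps, then fixed, stained and imaged at 4× after 5 days.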

Compound in assay [2]: CC(C)C[C@@H](C(=O)N[C@H](C(=O)OC1CCCC1)c1ccccc1)[C@H](O)C(=O)NO [Tosedostat] + Nc1ncn([C@H]2C[C@H](O)[C@@H](CO)O2)c(=O)n1 [Decitabine] (partner 2 µM)
The method in brief:
as §1

Compound in assay [3]: CC(C)C[C@@H](C(=O)N[C@H](C(=O)OC1CCCC1)c1ccccc1)[C@H](O)C(=O)NO [Tosedostat] + O=C(CCCCCCC(=O)Nc1ccccc1)NO [Vorinostat] (partner 1 µM)
The method in brief:
as §1

Compound in assay [4]: CC1=NN=C(O1)C2=NN=C(C=C2)N3CCC(CC3)OC4=C(C=CC(=C4)F)Cl + CS(=O)(=O)CCNCc1ccc(-c2ccc3ncnc(Nc4ccc(OCc5cccc(F)c5)c(Cl)c4)c3c2)o1 [Lapatinib] (partner 2 µM)
The method in brief: as §1

Regarding UMC-11, the relative viability was determined as 0.962 in assay [1] (first compound 0.02 µM); 0.87 in assay [1] (first compound 0.06325 µM); 0.957 in assay [1] (first compound 0.2 µM); 0.942 in assay [1] (first compound 0.6325 µM); 1.03 in assay [1] (first compound 2 µM); 0.687 in assay [2] (first compound 0.02 µM). Moreover, the relative viability in assay [2] (first compound 0.06325 µM) turned out to be 0.575; in assay [2] (first compound 0.2 µM) it was 0.801; in assay [2] (first compound 0.6325 µM), 0.568; in assay [2] (first compound 2 µM), 0.587; in assay [3] (first compound 0.02 µM), 0.459; in assay [3] (first compound 0.06325 µM), 0.459. Also, the relative viability stood at 0.372 in assay [3] (first compound 0.2 µM); 0.388 in assay [3] (first compound 0.6325 µM); 0.391 in assay [3] (first compound 2 µM); 0.641 in assay [4] (first compound 0.253 µM); 0.645 in assay [4] (first compound 0.8 µM); 0.777 in assay [4] (first compound 2.53 µM). Further, the relative viability in assay [4] (first compound 8 µM) was determined as 0.595.
